Measurements as given in US6737383B1, “Herbicidal oxadiazolidines” (priority 1999, dated 2004).

Assays:
bedstraw = assay: Test B pre/postemergence bedstraw; type: in vivo, Galium aparine; conditions: Preemergence
In short: (§1)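 Test chemicals in a non-phytotoxic solvent mixture with surfactant were sprayed preemergence onto planted seeds and postemergence onto plants 2 to 18 cm tall (1- to 4-leaf stage). After twelve to sixteen days in a greenhouse, injury was visually rated against untreated controls from 0 (no effect) to 10 (complete control).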

rape = assay: Test B pre/postemergence rape; type: in vivo, Brassica napus; conditions: Preemergence; for Plant response rating, Rape: Rate 125 g/ha
In short: as §1

blackgrass = assay: Test B pre/postemergence blackgrass; type: in vivo, Alopecurus myosuroides; conditions: Preemergence
In short: as §1

velvetleaf = assay: Test B pre/postemergence velvetleaf; type: in vivo, Abutilon theophrasti; conditions: Preemergence; for Plant response rating, Velvetleaf: Rate 125 g/ha
In short: as §1

purple nutsedge = assay: Test B pre/postemergence purple nutsedge; type: in vivo, Cyperus rotundus; conditions: Preemergence
In short: as §1

pigweed = assay: Test B pre/postemergence pigweed; type: in vivo, Amaranthus retroflexus; conditions: Preemergence; for Plant response rating, Redroot pigweed: Rate 125 g/ha
In short: as §1

soybean = assay: Test B pre/postemergence soybean; type: in vivo, Glycine max; conditions: Preemergence; for Plant response rating, Soybean: Rate 125 g/ha
In short: as §1

crabgrass = assay: Test B pre/postemergence crabgrass; type: in vivo, Digitaria sanguinalis; conditions: Preemergence
In short: as §1

corn = assay: Test B pre/postemergence corn; type: in vivo, Zea mays; conditions: Preemergence
In short: as §1

sugar beet = assay: Test B pre/postemergence sugar beet; type: in vivo, Beta vulgaris; conditions: Preemergence; for Plant response rating, Sugarbeets: Rate 125 g/ha
In short: as §1

cocklebur = assay: Test B pre/postemergence cocklebur; type: in vivo, Xanthium strumarium; conditions: Preemergence
In short: as §1

wild oat = assay: Test B pre/postemergence wild oat; type: in vivo, Avena fatua; conditions: Preemergence; for Plant response rating, Wild oats: Rate 125 g/ha
In short: as §1

surinam grass = assay: Test B pre/postemergence surinam grass; type: in vivo, Brachiaria decumbens; conditions: Preemergence
In short: as §1

morningglory = assay: Test B pre/postemergence morningglory; type: in vivo, Ipomoea hederacea; conditions: Preemergence; for Plant response rating, Morningglory: Rate 125 g/ha
In short: as §1

giant foxtail = assay: Test B pre/postemergence giant foxtail; type: in vivo, Setaria faberii; conditions: Preemergence; for Plant response rating, Giant foxtail: Rate 125 g/ha
In short: as §1

wheat = assay: Test B pre/postemergence wheat; type: in vivo, Triticum aestivum; conditions: Preemergence; for Plant response rating, Wheat: Rate 125 g/ha
In short: as §1

[1] = Rate 62 g/ha, scale of 0 to 10 where 0 is no effect and 10 is complete control
[2] = Rate 125 g/ha, scale of 0 to 10 where 0 is no effect and 10 is complete control
[3] = Rate 250 g/ha, scale 0 to 10 (0 no effect, 10 complete control)
[4] = scale of 0 to 10 where 0 is no effect and 10 is complete control
[5] = Rate 500 g/ha, scale of 0 to 10 where 0 is no effect and 10 is complete control
[6] = Rate 31 g/ha, visual rating, scale 0 to 10 (0 no effect, 10 complete control)
[7] = Rate 250 g/ha, scale 0 (no effect) to 10 (complete control)
[8] = Rate 500 g/ha, scale 0 to 10 (0 no effect, 10 complete control)

CC(C)N(C(=O)n1oc(=O)n(C(C)C)c1=O)c1ccc(Br)cc1 [Compound 691]
Bedstraw plant response rating (bedstraw; [1]): 0
Plant response rating, Bedstraw (bedstraw; [2]): 9
Plant response rating, Bedstraw (bedstraw; [3]): 9
Rape plant response rating (rape; [1]): 0
Plant response rating, Rape (rape; [4]): 3
Blackgrass plant response rating (blackgrass; [1]): 4
Plant response rating, Blackgrass (blackgrass; [2]): 9
Plant response rating, Blackgrass (blackgrass; [3]): 10
Plant response rating, Blackgrass (blackgrass; [5]): 10
Velvetleaf plant response rating (velvetleaf; [1]): 0
Plant response rating, Velvetleaf (velvetleaf; [4]): 0
Nutsedge plant response rating (purple nutsedge; [1]): 0
Redroot pigweed plant response rating (pigweed; [1]): 2
Plant response rating, Redroot pigweed (pigweed; [4]): 3
Soybean plant response rating (soybean; [1]): 2
Plant response rating, Soybean (soybean; [4]): 2
Crabgrass plant response rating (crabgrass; [1]): 9
Plant response rating, Crabgrass (crabgrass; [2]): 9
Plant response rating, Crabgrass (crabgrass; [3]): 10
Corn plant response rating (corn; [1]): 0
Plant response rating, Corn (corn; [2]): 0
Plant response rating, Corn (corn; [3]): 0
Sugarbeets plant response rating (sugar beet; [1]): 0
Plant response rating, Sugarbeets (sugar beet; [4]): 2
Cocklebur plant response rating (cocklebur; [1]): 0
Plant response rating, Cocklebur (cocklebur; [3]): 0
Plant response rating, Cocklebur (cocklebur; [5]): 0
Wild oats plant response rating (wild oat; [1]): 2
Plant response rating, Wild oats (wild oat; [4]): 6
B. signalgrass plant response rating (surinam grass; [1]): 0
Plant response rating, B. signalgrass (surinam grass; [2]): 8
Plant response rating, B. signalgrass (surinam grass; [3]): 9
Plant response rating, B. signalgrass (surinam grass; [5]): 10
Morningglory plant response rating (morningglory; [1]): 0
Plant response rating, Morningglory (morningglory; [4]): 0
Giant foxtail plant response rating (giant foxtail; [1]): 9
Plant response rating, Giant foxtail (giant foxtail; [4]): 10
Wheat plant response rating (wheat; [1]): 0
Plant response rating, Wheat (wheat; [4]): 0

CC(C)N(C(=O)n1oc(=O)n(Cc2nnc(-c3ccccc3)o2)c1=O)c1ccccc1 [Compound 716]
Bedstraw plant response rating (bedstraw; [6]): 0
Bedstraw plant response rating (bedstraw; [1]): 0
Plant response rating, Bedstraw (bedstraw; [2]): 0
Bedstraw plant response rating (bedstraw; [7]): 0
Rape plant response rating (rape; [1]): 0
Plant response rating, Rape (rape; [4]): 0
Rape plant response rating (rape; [7]): 0
Blackgrass plant response rating (blackgrass; [6]): 0
Blackgrass plant response rating (blackgrass; [1]): 0
Plant response rating, Blackgrass (blackgrass; [2]): 0
Blackgrass plant response rating (blackgrass; [7]): 0
Velvetleaf plant response rating (velvetleaf; [1]): 0
Plant response rating, Velvetleaf (velvetleaf; [4]): 0
Velvetleaf plant response rating (velvetleaf; [7]): 0
Nutsedge plant response rating (purple nutsedge; [1]): 0
Plant response rating, Nutsedge (purple nutsedge; [2]): 0
Redroot pigweed plant response rating (pigweed; [1]): 0
Plant response rating, Redroot pigweed (pigweed; [4]): 0
Redroot pigweed plant response rating (pigweed; [7]): 0
Soybean plant response rating (soybean; [1]): 0
Plant response rating, Soybean (soybean; [4]): 0
Soybean plant response rating (soybean; [7]): 0
Crabgrass plant response rating (crabgrass; [6]): 0
Crabgrass plant response rating (crabgrass; [1]): 0
Plant response rating, Crabgrass (crabgrass; [2]): 0
Crabgrass plant response rating (crabgrass; [7]): 0
Corn plant response rating (corn; [6]): 0
Corn plant response rating (corn; [1]): 0
Plant response rating, Corn (corn; [2]): 0
Corn plant response rating (corn; [7]): 0
Sugarbeets plant response rating (sugar beet; [1]): 0
Plant response rating, Sugarbeets (sugar beet; [4]): 0
Sugarbeets plant response rating (sugar beet; [7]): 0
Cocklebur plant response rating (cocklebur; [6]): 0
Cocklebur plant response rating (cocklebur; [1]): 0
Plant response rating, Cocklebur (cocklebur; [2]): 0
Cocklebur plant response rating (cocklebur; [7]): 0
Wild oats plant response rating (wild oat; [1]): 0
Plant response rating, Wild oats (wild oat; [4]): 0
Wild oats plant response rating (wild oat; [7]): 0
B. signalgrass plant response rating (surinam grass; [6]): 0
B. signalgrass plant response rating (surinam grass; [1]): 0
Plant response rating, B. signalgrass (surinam grass; [2]): 0
B. signalgrass plant response rating (surinam grass; [7]): 0
Morningglory plant response rating (morningglory; [1]): 0
Plant response rating, Morningglory (morningglory; [4]): 0
Morningglory plant response rating (morningglory; [7]): 0
Giant foxtail plant response rating (giant foxtail; [6]): 0
Giant foxtail plant response rating (giant foxtail; [1]): 0
Plant response rating, Giant foxtail (giant foxtail; [4]): 0
Giant foxtail plant response rating (giant foxtail; [7]): 0
Wheat plant response rating (wheat; [1]): 0
Plant response rating, Wheat (wheat; [4]): 0
Wheat plant response rating (wheat; [7]): 0

C=C(Cn1c(=O)on(C(=O)N(c2ccc(F)cc2)C(C)C)c1=O)C(=O)OC [Compound 732]
Bedstraw plant response rating (bedstraw; [1]): 0
Plant response rating, Bedstraw (bedstraw; [2]): 0
Bedstraw plant response rating (bedstraw; [7]): 0
Bedstraw plant response rating (bedstraw; [8]): 0
Rape plant response rating (rape; [1]): 0
Plant response rating, Rape (rape; [4]): 0
Rape plant response rating (rape; [7]): 0
Rape plant response rating (rape; [8]): 0
Blackgrass plant response rating (blackgrass; [1]): 0
Plant response rating, Blackgrass (blackgrass; [2]): 0
Blackgrass plant response rating (blackgrass; [7]): 0
Blackgrass plant response rating (blackgrass; [8]): 0
Velvetleaf plant response rating (velvetleaf; [1]): 0
Plant response rating, Velvetleaf (velvetleaf; [4]): 0
Velvetleaf plant response rating (velvetleaf; [7]): 0
Velvetleaf plant response rating (velvetleaf; [8]): 0
Nutsedge plant response rating (purple nutsedge; [1]): 0
Nutsedge plant response rating (purple nutsedge; [7]): 0
Nutsedge plant response rating (purple nutsedge; [8]): 0
Redroot pigweed plant response rating (pigweed; [1]): 0
Plant response rating, Redroot pigweed (pigweed; [4]): 0
Redroot pigweed plant response rating (pigweed; [7]): 0
Redroot pigweed plant response rating (pigweed; [8]): 0
Soybean plant response rating (soybean; [1]): 0
Plant response rating, Soybean (soybean; [4]): 0
Soybean plant response rating (soybean; [7]): 0
Soybean plant response rating (soybean; [8]): 0
Crabgrass plant response rating (crabgrass; [1]): 0
Plant response rating, Crabgrass (crabgrass; [2]): 0
Crabgrass plant response rating (crabgrass; [7]): 0
Crabgrass plant response rating (crabgrass; [8]): 0
Corn plant response rating (corn; [1]): 0
Plant response rating, Corn (corn; [2]): 0
Corn plant response rating (corn; [7]): 0
Corn plant response rating (corn; [8]): 0
Sugarbeets plant response rating (sugar beet; [1]): 0
Plant response rating, Sugarbeets (sugar beet; [4]): 0
Sugarbeets plant response rating (sugar beet; [7]): 0
Sugarbeets plant response rating (sugar beet; [8]): 0
Cocklebur plant response rating (cocklebur; [1]): 0
Plant response rating, Cocklebur (cocklebur; [2]): 0
Cocklebur plant response rating (cocklebur; [7]): 0
Cocklebur plant response rating (cocklebur; [8]): 0
Wild oats plant response rating (wild oat; [1]): 0
Plant response rating, Wild oats (wild oat; [4]): 0
Wild oats plant response rating (wild oat; [7]): 0
Wild oats plant response rating (wild oat; [8]): 0
B. signalgrass plant response rating (surinam grass; [1]): 0
Plant response rating, B. signalgrass (surinam grass; [2]): 0
B. signalgrass plant response rating (surinam grass; [7]): 0
B. signalgrass plant response rating (surinam grass; [8]): 0
Morningglory plant response rating (morningglory; [1]): 0
Plant response rating, Morningglory (morningglory; [4]): 0
Morningglory plant response rating (morningglory; [7]): 0
Morningglory plant response rating (morningglory; [8]): 0
Giant foxtail plant response rating (giant foxtail; [1]): 0
Plant response rating, Giant foxtail (giant foxtail; [4]): 0
Giant foxtail plant response rating (giant foxtail; [7]): 0
Giant foxtail plant response rating (giant foxtail; [8]): 0
Wheat plant response rating (wheat; [1]): 0
Plant response rating, Wheat (wheat; [4]): 0
Wheat plant response rating (wheat; [7]): 0
Wheat plant response rating (wheat; [8]): 0
